# Laboratory results taken from ChEMBL document CHEMBL3407344, “Computer-guided drug repurposing: identification of trypanocidal activity of clofazimine, benidipine and saquinavir” (Eur J Med Chem, 2015).
# The source made the active and inactive calls. No cut-off for these calls is given here.
# Assays:
# [1] = target: Cruzipain (Trypanosoma cruzi) (UniProt P25779); assay: Inhibition of Trypanosoma cruzi cruzaine at 100 uM using mMBz-Pro-Phe-Arg-pNA substrate incubated for 5 mins by UV-vis spectrophotometry
# Sequence of Cruzipain (Trypanosoma cruzi) (P25779 123-467 limits assumed): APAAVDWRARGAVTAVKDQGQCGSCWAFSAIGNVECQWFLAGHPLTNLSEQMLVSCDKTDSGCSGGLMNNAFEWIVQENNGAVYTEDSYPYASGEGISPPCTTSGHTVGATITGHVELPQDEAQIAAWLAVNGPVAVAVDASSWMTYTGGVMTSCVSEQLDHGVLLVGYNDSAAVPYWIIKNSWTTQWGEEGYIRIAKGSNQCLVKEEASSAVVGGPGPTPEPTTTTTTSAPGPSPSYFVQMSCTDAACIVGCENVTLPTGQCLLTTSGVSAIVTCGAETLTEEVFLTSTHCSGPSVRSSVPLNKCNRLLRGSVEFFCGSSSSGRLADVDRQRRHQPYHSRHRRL
# Trypanosoma cruzi [2] = assay: Trypanocidal activity against GFP expressing Trypanosoma cruzi Y C57BL/6J mouse acute model of trypanosomal infection assessed as reduction in cardiac amastigote nests counts at 100 mg/kg/day, ip measured at 10,14 and 20 days post infection by HE staining based conventional microscopy; assay type: functional, organism-based
# Trypanosoma cruzi [3] = assay: Trypanocidal activity against GFP expressing Trypanosoma cruzi Y C57BL/6J mouse acute model of trypanosomal infection assessed as reduction in parasitemia at 100 mg/kg/day, ip measured at 10,14 and 20 days post infection; assay type: functional, organism-based
# Trypanosoma cruzi [4] = assay: (§1) Trypanocidal activity against GFP expressing Trypanosoma cruzi Y epimastigotes in rat H9C2 cell monolayers for 12 hrs infected with 30 mins compound pre-treated parasite obtained from infected African green monkey Vero cells assessed as reduction in parasite count at 2.5 uM measured after 48 hrs by confocal microscopy; assay type: functional, organism-based
# Trypanosoma cruzi [5] = assay: Trypanocidal activity against GFP expressing Trypanosoma cruzi Y epimastigotes assessed as effect on parasite motility at 1 uM to 20 uM measured after 1 to 3 days by hemocytometry based cell counting method; assay type: functional, organism-based
# [6] = target: Cruzipain (Trypanosoma cruzi) (UniProt P25779); assay: Inhibition of Trypanosoma cruzi cruzaine using mMBz-Pro-Phe-Arg-pNA substrate incubated for 5 mins by UV-vis spectrophotometry
# Trypanosoma cruzi [7] = assay: Trypanocidal activity against GFP expressing Trypanosoma cruzi Y epimastigotes assessed as inhibition of parasite proliferation at 1 uM to 20 uM and measured after 4 days by hemocytometry based cell counting method; assay type: functional; conditions: 96 h
# Trypanosoma cruzi [8] = assay: as §1, with “24” for “12”, “96” for “48”; assay type: functional, organism-based
# Trypanosoma cruzi [9] = assay: Trypanocidal activity against GFP expressing Trypanosoma cruzi Y epimastigotes assessed as effect on parasite morphology at 1 uM to 20 uM measured after 1 to 3 days by hemocytometry based cell counting method; assay type: functional, organism-based
# H9c2 [10] = assay: Cytotoxicity against rat H9c2 cells assessed as effect on metabolic activity at 2.5 uM by alamar blue assay; assay type: ADME, cell-based; conditions: h9c2, 2.5 µM
# [11] = Toxicity in orally dosed mouse; assay type: organism-based; conditions: in vivo, po
# Trypanosoma cruzi [12] = assay: Trypanocidal activity against GFP expressing Trypanosoma cruzi Y C57BL/6J mouse acute model of trypanosomal infection assessed as reduction in parasitemia at 10 mg/kg/day, ip measured at 10,14 and 20 days post infection; assay type: functional; conditions: route intraperitoneal
# Trypanosoma cruzi [13] = assay: as §1, with “cell invasion” for “parasite count”; assay type: functional
# H9c2 [14] = assay: Cytotoxicity against rat H9c2 cells assessed as effect on metabolic activity at 5 uM by alamar blue assay; assay type: ADME, cell-based; conditions: h9c2, 5 µM
# Trypanosoma cruzi [15] = assay: Trypanocidal activity against GFP expressing Trypanosoma cruzi Y C57BL/6J mouse acute model of trypanosomal infection assessed as reduction in parasitemia at 20 mg/kg/day, ip measured at 10,14 and 20 days post infection; assay type: functional; conditions: route intraperitoneal
# Trypanosoma cruzi [16] = assay: as §1, with “5” for “2.5”; assay type: functional, organism-based
# Trypanosoma cruzi [17] = assay: Trypanocidal activity against GFP expressing Trypanosoma cruzi Y C57BL/6J mouse acute model of trypanosomal infection assessed as reduction in cardiac amastigote nests counts at 20 mg/kg/day, ip measured at 10,14 and 20 days post infection by HE staining based conventional microscopy; assay type: functional, organism-based
# Trypanosoma cruzi [18] = assay: as §1, with “24” for “12”, “5” for “2.5”, “96” for “48”; assay type: functional, organism-based
# Trypanosoma cruzi [19] = assay: Trypanocidal activity against GFP expressing Trypanosoma cruzi Y epimastigotes assessed as inhibition of parasite proliferation at 20 uM measured after few hrs by hemocytometry based cell counting method; assay type: functional, organism-based
# Plasma = assay: Plasma concentration in leprosy patient at […], po dosed daily; assay type: ADME, organism-based; set-up: route oral; conditions: human, in vivo
# Trypanosoma cruzi [20] = assay: as §1, with “cell invasion” for “parasite count”, “5” for “2.5”; assay type: functional
# H9c2 [21] = assay: Cytotoxicity against rat H9c2 cells assessed as effect on metabolic activity at 10 uM by alamar blue assay; assay type: ADME, cell-based; conditions: h9c2, 10 µM
# Trypanosoma cruzi [22] = assay: as §1, with “10” for “2.5”; assay type: functional, organism-based
# Trypanosoma cruzi [23] = assay: Trypanocidal activity against GFP expressing Trypanosoma cruzi Y epimastigotes assessed as inhibition of parasite proliferation at 1 uM to 20 uM and measured during stationary phase by hemocytometry based cell counting method; assay type: functional, organism-based
# Trypanosoma cruzi [24] = assay: as §1, with “cell invasion” for “parasite count”, “10” for “2.5”; assay type: functional
# Trypanosoma cruzi [25] = assay: as §1, with “24” for “12”, “10” for “2.5”, “96” for “48”; assay type: functional, organism-based
smiles,measurement,setting,value
COc1ccc(CCN(C)CCCC(C#N)(c2ccc(OC)c(OC)c2)C(C)C)cc1OC (configuration not stated),inhibition,[1],inactive
O=C(Cn1ccnc1[N+](=O)[O-])NCc1ccccc1,inhibition,Trypanosoma cruzi [2],Active
same,inhibition,Trypanosoma cruzi [3],Active
COC(=O)C1=C(C)NC(C)=C(C(=O)OC2CCCN(Cc3ccccc3)C2)C1c1cccc([N+](=O)[O-])c1 (configuration not stated) [BENIDIPINE],Activity,Trypanosoma cruzi [4],Active
same,Activity,Trypanosoma cruzi [5],Active
same,inhibition,[6],Dose-dependent effect
same,LC50,Trypanosoma cruzi [7],19.5 µM
same,Activity,Trypanosoma cruzi [8],Active
same,Activity,Trypanosoma cruzi [9],Active
same,inhibition,[1],Active
same,Activity,H9c2 [10],Non-toxic
same,LD50,[11],> 300 mg/kg
same,inhibition in vivo at 10 mg/kg/day,Trypanosoma cruzi [12],40%
same,fold change (FC),Trypanosoma cruzi [13],3
CC(C)/N=c1\cc2n(-c3ccc(Cl)cc3)c3ccccc3nc-2cc1Nc1ccc(Cl)cc1 [CLOFAZIMINE],Activity,H9c2 [14],Non-toxic
same,Activity,Trypanosoma cruzi [5],Active
same,inhibition in vivo at 20 mg/kg/day,Trypanosoma cruzi [15],40%
same,Activity,Trypanosoma cruzi [16],Active
same,inhibition,[6],Dose-dependent effect
same,LC50,Trypanosoma cruzi [7],10.6 µM
same,Activity,Trypanosoma cruzi [9],Active
same,inhibition,[1],Active
same,inhibition,Trypanosoma cruzi [17],Active
same,Activity,Trypanosoma cruzi [18],Active
same,inhibition,Trypanosoma cruzi [19],Active
same,LD50,[11],5000 mg/kg
same,concentration,Plasma,2100 nM
same,fold change (FC),Trypanosoma cruzi [20],3
CC(C)(C)NC(=O)[C@@H]1C[C@@H]2CCCC[C@@H]2CN1C[C@@H](O)[C@H](Cc1ccccc1)NC(=O)[C@H](CC(N)=O)NC(=O)c1ccc2ccccc2n1 [SAQUINAVIR],Activity,Trypanosoma cruzi [5],Active
same,inhibition,[6],Dose-dependent effect
same,Activity,Trypanosoma cruzi [9],Active
same,inhibition,[1],Active
same,Activity,H9c2 [21],Non-toxic
same,Activity,Trypanosoma cruzi [22],Active
same,inhibition,Trypanosoma cruzi [23],Active
same,fold change (FC),Trypanosoma cruzi [24],3
same,Activity,Trypanosoma cruzi [25],Active
